Experimental data taken from EPA's ToxValDB 9.5.

Columns and labels:
Rattus norvegicus [1] = details: oral
Rattus norvegicus [2] = system: Rattus norvegicus
Rattus norvegicus [3] = details: oral, gavage, Sprague-Dawley
[4] = reproduction developmental, duration: 7 days, F, generation: P0, P0: Developmental: Whole Body: Litter Size + P0: Developmental: Whole Body: Male Pups per Pups Sexed
[5] = short-term, duration: 21 days, M, Endocrine: Multi-Organ: Estradiol, Serum + Endocrine: Multi-Organ: Follicular Stimulating Hormone (FSH), Serum + Endocrine: Multi-Organ: …
[6] = short-term, duration: 21 days, M, Endocrine: Multi-Organ: Estradiol, Serum + Endocrine: Multi-Organ: Follicular Stimulating Hormone (FSH), Serum + Metabolic: Multi-Organ: …
[7] = short-term, duration: 21 days, M, Endocrine: Multi-Organ: Testosterone (T), Serum + Reproductive: Epididymis: Epididymis Weight, Absolute + Reproductive: Testis: Testis …
[8] = short-term, duration: 4 weeks, oral, gavage, F, Sprague-Dawley
[9] = short-term, duration: 4 weeks, oral, gavage, M, Sprague-Dawley
[10] = subchronic, gavage, Sprague-Dawley
[11] = short-term, duration: 28 days, gavage, F, Sprague-Dawley, Clinical Observation: Soft stool + Body Weight Changes: decrease, Gain decrease + Urinalysis: Protein increasep H decrease + Blood Chemistry…
[12] = short-term, duration: 28 days, gavage, M, Sprague-Dawley, Clinical Observation: Soft stool + Body Weight Changes: decrease, Gain decrease + Urinalysis: Protein increasep H decrease + Blood Chemistry…
[13] = short-term, duration: 28 days, gavage, M, Sprague-Dawley, Clinical Observation: Locomotor activity decrease, Staining around nose and mouth Salivation + Functional Observational Battery: Motor …
[14] = subchronic, gavage, M, Sprague-Dawley, Clinical Observation: Salivation PtosisEmaciation Locomotor activity decrease + Body Weight Changes: Gain decrease + Blood Chemistry: TP …
[15] = short-term, duration: 28 days, gavage, F, Sprague-Dawley, Clinical Observation: Staggering gait + Body Weight Changes: decrease, Gain decrease + Urinalysis: pH decrease, Protein decrease, Volume …
[16] = short-term, duration: 28 days, gavage, M, Sprague-Dawley, Clinical Observation: Staggering gait + Body Weight Changes: decrease, Gain decrease + Urinalysis: pH decrease, Protein decrease, Volume …

Compound: CCCCCCCCCCCCCCCCCC(=O)[O-].CCCCCCCCCCCCCCCCCC(=O)[O-].[Ca+2] [Calcium stearate]
- NOAEL (Rattus norvegicus [1]; short-term, duration: 28 days, gavage, M, Sprague-Dawley, Urinalysis: Bilirubin increase + Absolute Organ Weight: Spleen increase): 2000 mg/kg-day
- NOAEL (Rattus norvegicus [2]; subchronic, duration: 13 weeks, dermal, non-occlusive, F, Sprague-Dawley): 2000 mg/kg-day
- NOAEL (Rattus norvegicus [2]; subchronic, duration: 13 weeks, dermal, non-occlusive, M, Sprague-Dawley): 2000 mg/kg-day

Compound: O=C(O)C(F)(F)C(F)(F)C(F)(F)C(F)(F)C(F)(F)C(F)(F)C(F)(F)C(F)(F)C(F)(F)C(F)(F)C(F)(F)C(F)(F)F [Perfluorotridecanoic acid]
- NOAEL (Rattus norvegicus [3]; developmental, duration: 7 days, M, generation: F1, F1: Developmental: Testis: Fetal Leydig cell number + F1: Developmental: Trunk: Anogenital Distance + F1: Developmental: Whole Body: Pup …): 5 mg/kg-day
- LOAEL (Rattus norvegicus [3]; [4]): 10 mg/kg-day
- NOAEL (Rattus norvegicus [3]; [4]): 5 mg/kg-day
- LOAEL (Rattus norvegicus [3]; reproduction developmental, duration: 7 days, F, generation: P0, P0: Developmental: Whole Body: Litter Size + P0: Developmental: Whole Body: Male Pups per Pups Sexed + P0: Reproductive: Whole Body: Birth …): 1 mg/kg-day
- LOAEL (Rattus norvegicus [3]; reproduction developmental, duration: 7 days, F, generation: P0, P0: Reproductive: Whole Body: Birth rate): 1 mg/kg-day
- NOAEL (Rattus norvegicus [3]; reproduction developmental, duration: 7 days, F, generation: P0, P0: Whole Body: Whole Body: Clinical Observations, Unspecified + P0: Whole Body: Whole Body: Maternal Body Weight): 10 mg/kg-day
- LOAEL (Rattus norvegicus [3]; reproduction developmental, duration: 7 days, M, generation: F1, F1: Endocrine: Multi-Organ: Testosterone (T), Serum): 1 mg/kg-day
- LOAEL (Rattus norvegicus [3]; [5]): 5 mg/kg-day
- NOAEL (Rattus norvegicus [3]; [5]): 1 mg/kg-day
- LOAEL (Rattus norvegicus [3]; [6]): 10 mg/kg-day
- NOAEL (Rattus norvegicus [3]; [6]): 5 mg/kg-day
- LOAEL (Rattus norvegicus [3]; [7]): 5 mg/kg-day
- NOAEL (Rattus norvegicus [3]; [7]): 1 mg/kg-day
- NOAEL (Rattus norvegicus [3]; short-term, duration: 21 days, M, Whole Body: Whole Body: Body Weight Change + Whole Body: Whole Body: Body Weight, Absolute + Whole Body: Whole Body: Clinical Observation …): 10 mg/kg-day

Compound: C=C(C)C [Isobutene]
- NOAEL (Rattus norvegicus [1]; short-term, duration: 28 days, gavage, Sprague-Dawley): 149 mg/kg-day
- NOAEL (Rattus norvegicus [2]; reproduction developmental, duration: 17 days, inhalation, F, Wistar): 18400 mg/m3
- LOAEL (Rattus norvegicus [2]; [8]): 149 mg/kg-day
- NOAEL (Rattus norvegicus [2]; [8]): 14.9 mg/kg-day
- LOAEL (Rattus norvegicus [2]; [9]): 149 mg/kg-day
- NOAEL (Rattus norvegicus [2]; [9]): 14.9 mg/kg-day
- NOAEL (Rattus norvegicus [2]; subchronic, duration: 13 weeks, inhalation, F, Sprague-Dawley): 18400 mg/m3
- NOAEL (Rattus norvegicus [2]; subchronic, duration: 13 weeks, inhalation, M, Sprague-Dawley): 18400 mg/m3

Compound: O=C1c2ccccc2C(=O)c2c(Cl)cccc21 [1-Chloroanthraquinone]
- NOEL (Rattus norvegicus [1]; short-term, duration: 28 days, gavage, M/F, Sprague-Dawley, Clinical Observation: Brown urine + Functional Observational Battery: Landing foot splay decrease, Locomotor activity decrease + Food …): < 4 mg/kg-day

Compound: CC(=O)CC(=O)Nc1ccc(-c2ccc(NC(=O)CC(C)=O)c(C)c2)cc1C
- NOEL (Rattus norvegicus [1]; short-term, duration: 28 days, gavage, M/F, Crl:CD(SD), Body Weight Changes: decrease + Food Consumption: decrease + Water Consumption: decrease + Urinalysis: Volume decrease + Blood Chemistry: …): 8 mg/kg-day

Compound: CO[Si](CCCOCC1CO1)(OC)OC (configuration not stated) [Trimethoxy[3-(oxiran-2-ylmethoxy)propyl]silane]
- NOAEL (Rattus norvegicus [1]; short-term, duration: 28 days, gavage, Sprague-Dawley, Deaths: None (there were dead animals due to intubation error)): > 1000 mg/kg-day

Compound: COC(N)=O [Methyl carbamate]
- NOEL (Rattus norvegicus [1]; subchronic, duration: 13 weeks, gavage, M/F, Fischer 344, Deaths + Body Weight Changes: decrease + Absolute Organ Weight: Liver decrease + Relative Organ Weight: Liver decrease + Histopathology: …): 50 mg/kg-day

Compound: CC(=O)Nc1ccccc1 [N-Acetylaminobenzene]
- NOAEL (Rattus norvegicus [1]; subchronic, duration: 30 days, gavage, M, Sprague-Dawley, Clinical Observation: Decreased locomotor activity Reddish Tear SalivationCyanosis + Hematology: HGB decrease, HCT decrease, MCHC decrease…): < 22 mg/kg-day

Compound: CCNc1cccc2ccccc12 [1-Naphthalenamine, N-ethyl-]
- NOEL (Rattus norvegicus [1]; short-term, duration: 28 days, gavage, M/F, Sprague-Dawley, Deaths + Clinical Observation: Brown urine Soft feces + Functional Observational Battery: Motor activity decrease + Body Weight Changes: …): 12 mg/kg-day

Compound: OC[C@@H](O)[C@@H](O[C@@H]1O[C@H](CO)[C@H](O)[C@H](O)[C@H]1O)[C@H](O)[C@@H](O)CO [Lactitol]
- NOEL (Rattus norvegicus [1]; subchronic, gavage, M/F, SLC:SD, Clinical Observation: Loose stool, Diarrhea Soiled fur, Salivation Abdominal distention + Body Weight Changes: decrease + Food Consumption: …): < 625 mg/kg-day

Compound: O=C1C=CC(=O)N1c1ccc(Cc2ccc(N3C(=O)C=CC3=O)cc2)cc1 [Bismaleimide]
- NOEL (Rattus norvegicus [1]; [10]): 1000 mg/kg-day

Compound: C=Cc1ccc(S(=O)(=O)[O-])cc1.[Na+] [Sodium 4-vinylbenzenesulfonate]
- LOEL (Rattus norvegicus [1]; [11]): 1000 mg/kg-day
- NOEL (Rattus norvegicus [1]; [11]): 300 mg/kg-day
- LOEL (Rattus norvegicus [1]; [12]): 300 mg/kg-day
- NOEL (Rattus norvegicus [1]; [12]): 100 mg/kg-day

Compound: Cc1cc(Cc2cc(C)cc(C(C)(C)C)c2O)c(O)c(C(C)(C)C)c1 [2,2'-Methylenebis(4-methyl-6-tert-butylphenol)]
- NOEL (Rattus norvegicus [1]; subchronic, diet, F, Wistar, Deaths: Survival rate.6 (45% % ).0 (20% % ) + Body Weight Changes: decrease + Food Consumption: decrease + Hematology: Hgb decrease RBC …): < 104 mg/kg-day
- NOEL (Rattus norvegicus [1]; subchronic, diet, M/F, Wistar, Deaths: Survival rate.6 (45% % ).0 (20% % ) + Body Weight Changes: decrease + Food Consumption: decrease + Hematology: Hgb decrease RBC …): < 0.12%
- NOEL (Rattus norvegicus [1]; subchronic, diet, M/F, Wistar, Hematology: Hgb increasemg/kg/ + Blood Chemistry: Cho increasemg/kg/ + Absolute Organ Weight: Liver increasemg/kg/ + Relative Organ …): 1.92 mg/kg-day

Compound: COc1ccc(C)cc1N [2-Methoxy-5-methylaniline]
- NOEL (Rattus norvegicus [1]; short-term, duration: 28 days, gavage, M/F, Clinical Observation: Salivation + Body Weight Changes: Weight gain decrease + Food Consumption: decrease + Urinalysis: Occult blood RBC …): 2 mg/kg-day

Compound: CC(C)(C)C(O)(CCc1ccc(Cl)cc1)Cn1cncn1 (configuration not stated) [Tebuconazole]
- NOEL (Rattus norvegicus [1]; short-term, duration: 28 days, gavage, M/F, Clinical Observation: Coma Polyuria + Body Weight Changes: Body weight gain decrease + Hematology: WBC increase, Seg% increase + Blood …): 30 mg/kg-day

Compound: CC(=O)OC1CC(C)OC(C)O1 (configuration not stated) [Dimethoxane]
- NOEL (Rattus norvegicus [1]; subchronic, duration: 13 weeks, gavage, M/F, Fischer 344, Body Weight Changes: decrease + Relative Organ Weight: Kidney increase, Brain increase, Lung increase + Histopathology: Stomach/forestomach…): 31 mg/kg-day

Compound: [O-][n+]1ccccc1[S-].[O-][n+]1ccccc1[S-].[Zn+2] [Zinc pyrithione]
- NOEL (Rattus norvegicus [1]; [10]): 1 mg/kg-day

Compound: O=Cc1cccc(Cl)c1Cl [2,3-Dichlorobenzaldehyde]
- NOEL (Rattus norvegicus [1]; short-term, duration: 28 days, gavage, M/F, Clinical Observation: Salivation + Body Weight Changes: Body weight gain decrease + Blood Chemistry: GPT increase, A/G increase + Organ …): < 20 mg/kg-day

Compound: CC(O)CC(C)(C)O (configuration not stated) [2-Methyl-2,4-pentanediol]
- NOAEL (Rattus norvegicus [1]; subchronic, duration: 90 days, gavage, M/F, CD(SD), Deaths: None (there were dead animals by miss-dosing) + Water Consumption: increase + Urinalysis: pH decrease, S.G. increase + Hematology: …): 450 mg/kg-day

Compound: C/C=C/C=C/C=O [(2E,4E)-2,4-Hexadienal]
- NOEL (Rattus norvegicus [1]; chronic, duration: 14 weeks, gavage, M/F, Fischer 344, Clinical Observation: Hypersalivation + Body Weight Changes: decrease + Histopathology: Stomach/forestomach-Epithelium hyperplasia Stomach/…): 15 mg/kg-day

Compound: Clc1ccc(OCOCC#CI)cc1 [1-Chloro-4-(((3-iodo-2-propynyl)oxy)methoxy)benzene]
- NOEL (Rattus norvegicus [1]; subchronic, gavage, M, Sprague-Dawley, Clinical Observation: Salivation Loose stool + Body Weight Changes: decreaseor decrease(trend) + Food Consumption: decrease + Hematology: …): 8 mg/kg-day

Compound: O=NN1CN2CN(C1)CN(N=O)C2 [N,N-Dinitrosopentamethylenetetramine]
- NOAEL (Rattus norvegicus [1]; [13]): < 40 mg/kg-day
- NOEL (Rattus norvegicus [1]; [13]): < 40 mg/kg-day

Compound: O=c1[nH]c(=O)n([C@@H]2O[C@H](CO)[C@@H](O)[C@@H]2O)cc1/C=C/Br [Bravavir]
- NOEL (Rattus norvegicus [1]; chronic, duration: 182 days, gavage, M/F, Wistar, Deaths + Clinical Observation: Soiled eyelid Smudge, perioral, nose Flush, ear auricle Polyuria Soiled perineal region Decrease or loss of …): 80 mg/kg-day

Compound: CC(O)COc1ccc(C(C)(C)c2ccc(OCC(C)O)cc2)cc1 (configuration not stated) [Bisphenol A bis(polypropylene glycol) ether]
- LOAEL (Rattus norvegicus [1]; [14]): 120 mg/kg-day
- LOEL (Rattus norvegicus [1]; [14]): 120 mg/kg-day
- NOAEL (Rattus norvegicus [1]; [14]): 30 mg/kg-day
- NOEL (Rattus norvegicus [1]; [14]): 30 mg/kg-day

Compound: CCCCCCCC[Si](OCC)(OCC)OCC [Triethoxyoctylsilane]
- NOAEL (Rattus norvegicus [1]; short-term, duration: 28 days, diet, Fischer 344): 10000 ppm
- NOAEL (Rattus norvegicus [1]; short-term, duration: 29 days, gavage, M/F, Sprague-Dawley, Clinical Observation: Soiling of the head (nose, chin, muzzle) + Body Weight Changes: Mean body weight decrease, Weight gain decrease + Food…): 300 mg/kg-day

Compound: COc1ccc(OC)c(Cl)c1 [2-Chloro-1,4-dimethoxybenzene]
- LOEL (Rattus norvegicus [1]; [15]): 200 mg/kg-day
- NOEL (Rattus norvegicus [1]; [15]): 40 mg/kg-day
- LOEL (Rattus norvegicus [1]; [16]): 200 mg/kg-day
- NOEL (Rattus norvegicus [1]; [16]): 40 mg/kg-day
- NOEL (Rattus norvegicus [1]; subchronic, gavage, M, Sprague-Dawley, Hematology: RBC decrease, MCV increase, MCH increase + Blood Chemistry: T-Cho increase, PL increase, Ca increase + Absolute Organ Weight: …): 30 mg/kg-day

Compound: CC(C)CCCCCOC(=O)CCc1cc(C(C)(C)C)c(O)c(C(C)(C)C)c1
- NOEL (Rattus norvegicus [1]; short-term, duration: 28 days, gavage, M/F, Hematology: APTT increase + Organ Weight: Liver increase + Histopathology: Liver - Hypertrophy, centrilobular, hepatocyte Thyroid - …): < 5 mg/kg-day

Compound: O=C([O-])[C@H](O)[C@@H](O)[C@H](O)[C@H](O)CO.[Na+] [Sodium D-gluconate]
- NOAEL (Rattus norvegicus [1]; short-term, duration: 28 days, diet, CD(SD)): 4100 mg/kg-day
- NOAEL (Rattus norvegicus [1]; short-term, duration: 28 days, diet, Sprague-Dawley): 5%
- NOAEL (Rattus norvegicus [1]; short-term, duration: 28 days, gavage, M, CD(SD), Histopathology: Stomach: Thickening of the limiting ridge): 1000 mg/kg-day
- NOAEL (Rattus norvegicus [1]; short-term, duration: 28 days, gavage, M, CD(SD), Histopathology: Stomach: Thickening, limiting ridge): 1000 mg/kg-day
